The source made the active and inactive calls. No cut-off for these calls is given here.

The record followed here is ChEMBL document CHEMBL1157992, “Alvaradoins A-D. Anthracenone C arabinosides from alvaradoa jamaicensis” (J Nat Prod, 1999).

The experiment deals with Mycobacterium tuberculosis. Put plainly: Antituberculosis activity against Mycobacterium tuberculosis at 12.5 ug/mL. It counts as functional, organism-based.

As for `COc1cc(O)c2c(c1)[C@@](O)([C@H]1OC[C@H](OC(C)=O)[C@H](OC(=O)C=C(C)C)[C@H]1O)c1cc(C)cc(O)c1C2=O`, the outcome was inactive.
On to `COc1cc(O)c2c(c1)[C@](O)([C@H]1OC[C@H](OC(C)=O)[C@H](OC(=O)C=C(C)C)[C@H]1O)c1cc(C)cc(O)c1C2=O`, for which the outcome was inactive.
Regarding `COc1cc(O)c2c(c1)[C@H]([C@H]1OC[C@H](OC(C)=O)[C@H](OC(=O)C=C(C)C)[C@H]1O)c1cc(C)cc(O)c1C2=O`, the result was inactive.
`COc1cc(O)c2c(c1)C(=O)c1cc(C)cc(O)c1C2=O`: the outcome was inactive.
As for `Cc1cc(O)c2c(c1)C(=O)c1cccc(O)c1C2=O`, the entry is “inactive”.
The entry for `COc1cc(O)c2c(c1)[C@@H]([C@H]1OC[C@H](OC(C)=O)[C@H](OC(=O)C=C(C)C)[C@H]1O)c1cc(C)cc(O)c1C2=O` is “inactive”.
